Assay results published in US20260091020A1, “TREATMENT OF ACUTE CANNABINOID OVERDOSE” (Anebulo Pharmaceuticals, Inc., priority 2022, published 2026).
“Also recorded” adds a separate entry of the source.

Test system: central nervous system effects of THC
Test: Phase 2 randomized, double-blind, placebo-controlled THC challenge study, PD endpoints (10.5 mg THC + 50 or 100 mg Compound 1)
Assay type: in vivo, human
Settings: for Proportion of subjects reporting feeling high: score of at least 20/100 on VAS feeling high scale
[1] = 10.5 mg THC + 50 or 100 mg ANEB-001, p<0.05, unpaired t-test
[2] = 10.5 mg THC + 50 or 100 mg Compound 1 vs THC alone
[3] = 10.5 mg THC + 50 or 100 mg Compound 1 vs THC alone, not statistically significant overall
[4] = 10.5 mg THC + 50 or 100 mg Compound 1 vs THC alone, overall p<0.01

**Q.** With `CC(C)(C)NC(=O)N1CC(O[C@H](c2ccc(Cl)cc2)c2ccccc2C(F)(F)F)C1` [Compound 1, (R)—N-(tert-butyl)-3-((4-chlorophenyl)(2-(trifluoromethyl)phenyl)methoxy)azetidine-1-carboxamide] as the compound, how does the “Proportion of subjects reporting feeling high” value (10.5 mg THC + 50 mg Compound 1) read?
**A.** 10%

**Q.** What about the “Responder Rate for Reduction in Feeling High” value (10.5 mg THC + 50 mg or 100 mg Compound 1, p<0.01 vs THC alone) of the same compound?
**A.** 60%

**Q.** And the “Proportion of subjects reporting feeling high” value (10.5 mg THC + 100 mg Compound 1)?
**A.** 30%

**Q.** And the “Maximum change from baseline in body sway” value [1]?
**A.** significant reduction in the maximum change from baseline for body sway

**Q.** And the “Maximum change from baseline in heart rate” value [1]?
**A.** significant reduction in the maximum change from baseline for heart rate

**Q.** And the VAS calmness [2]?
**A.** no overall significant difference between the treatment groups

**Q.** And the VAS internal perception [2]?
**A.** no significant differences between treatments

**Q.** And the VAS mood [2]?
**A.** no significant differences between treatments

**Q.** What about the Heart rate [3] of the same compound?
**A.** trend towards normalization of heart rate; also recorded: trend to normalization of heart rate

**Q.** What about the THC-induced body sway [3] of the same compound?
**A.** trend towards reduced body sway; also recorded: trended to improvement

**Q.** And the “VAS feeling high, time course” value (10.5 mg THC + 50 or 100 mg Compound 1 vs THC alone, overall p<0.0001)?
**A.** highly significant reduction in feeling high; also recorded: Highly significant and sustained improvement

**Q.** And the VAS alertness [4]?
**A.** significantly inhibited the reduction in alertness; also recorded: significant improvement in alertness

**Q.** What about the VAS external perception [4] of the same compound?
**A.** significantly inhibited the change in perception; also recorded: Significant improvement at both dose levels
